Assay results: US4200760A, “Imidazolylalkylthioalkylamino-ethylene derivatives” (Bristol-Myers Company, priority 1978, dated 1980)

Columns and labels:
[1] = test system: gastric acid output; assay: Gastric antisecretory activity in the gastric fistula dog (histamine-induced gastric acid output); assay type: in vivo, dog (beagle); conditions: for ED50: Canis lupus familiaris, read-out: ED50 (acid output); for Potency Ratio: relative to cimetidine
Protocol: Thomas type [Thomas, J. E., Proc. Soc. exp. Biol. Med., 46, 260 (1941)] stainless steel cannulae are inserted into the stomachs of beagle dogs (10-12 kg.) just orad to the pyloric gland area near the greater curvature to provide a chronic gastric fistula. Animals are allowed to recover for at least two months before any testing is done. Dogs are fasted overnight (~18 hours) with water ad lib prior to each experiment. The dogs are placed in a sling and an eight inch inside needle catheter (C. R. Baird, Inc.) with a two inch 17 gauge needle is inserted into a leg vein for purposes of drug administration. Gastric secretions are collected every 15 minutes by gravity drainage from the opened cannula. […] A modification of the procedure described by Grossman and Konturek, Gastroenterology, 66, 517 (1974) was followed. […] Each 15 minute sample of gastric juice is measured to the nearest 0.5 ml. and titratable acidity against 0.02 N NaOH (endpoint pH 7.0) is measured with an Autoburet and pH meter (radiometer).The percent inhibition of acid output is calculated as described in the pylorus ligated rat procedure.

[2] = test system: gastric acid output; assay: Gastric antisecretory activity in the two hour pylorus ligated (Shay) rat; assay type: in vivo, rat (male Long Evans); conditions: for ED50: 2 h, read-out: ED50 (acid output); for Potency Ratio: relative to cimetidine
Description: The pyloric ligation procedure in the rat was designed by Shay et al., Gastroenterology, 5, 53 (1945) for the study of perforating gastric ulcers; however, as the method became known, it was also employed as a means of studying rat gastric secretion, Shay et al., Gastroenterology, 26, 906 (1954), Brodie, D. A., Am. J. Dig. Dis., 11, 231 (1966). A modification of this procedure is presently used to evaluate compounds for gastric antisecretory activity.
Male Long Evans rats, 280-300 gm., are used. The animals are placed in individual cages and fasted for 24 hours with free access to water. Under ether anesthesia, the stomach is reached through a midline incision, and a cotton-thread ligature is placed around the pylorus. […] All compounds are solubilized with one equivalent of HCl and brought to the proper volume with water. The animals are returned to their cages from which the water bottles have been removed and two hours later are sacrificed with ether. The stomach is removed and the two hour gastric collection is drained into a graduated test tube for volume determination. Titratable acidity is measured by titrating a one ml. sample to pH 7.0 with 0.02 N NaOH, using an Autoburet and an electrometric pH meter (Radiometer). Titratable acid output is calculated in microequivalents by multiplying the volume in milliliters by the acid concentration in milliequivalents per liter. The percent inhibition of acid output is calculated as follows: [formula]

[3] = biological target: T1, histamine H2-receptors (Cavia porcellus, UniProt P47747); assay: Histamine H2-receptor antagonism, isolated guinea pig right atria assay; design: species or system guinea pig (male Hartley strain); conditions: for Histamine ED50 after test compound / Concentration-Response Curve Displacement Factor: test compound 3 × 10^-5 M; for Histamine ED50 after test compound: 30 minute incubation; for Concentration-Response Curve Displacement Factor: shift of histamine curve to the right
T1 construct: The spontaneously beating right atrium was dissected free from other tissues; from tissue; host or cells: isolated spontaneously beating right atrium, male Hartley guinea pig
T1 sequence (P47747 whole entry): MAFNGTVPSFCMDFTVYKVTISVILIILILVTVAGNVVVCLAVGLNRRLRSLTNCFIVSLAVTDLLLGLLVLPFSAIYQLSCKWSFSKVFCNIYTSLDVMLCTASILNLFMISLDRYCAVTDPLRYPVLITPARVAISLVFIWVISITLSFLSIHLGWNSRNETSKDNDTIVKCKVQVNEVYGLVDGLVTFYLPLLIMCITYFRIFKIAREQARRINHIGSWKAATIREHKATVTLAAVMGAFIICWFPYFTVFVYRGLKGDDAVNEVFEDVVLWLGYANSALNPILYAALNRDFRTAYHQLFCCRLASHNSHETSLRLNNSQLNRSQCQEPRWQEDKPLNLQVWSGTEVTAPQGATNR
Protocol: Subsequent investigations by Hughes and Coret, Proc. Soc. […] Black et al., Agents and Actions, 3, 133 (1973) and Brimblecombe et al., Fed. […] The present comparative studies were carried out using a modification of the procedure reported by Reinhardt et al., Agents and Actions, 4, 217 (1974).
Male Hartley strain guinea pigs (350-450 gm.) were sacrificed by a blow on the head. The heart was excised and placed in a Petri dish of oxygenated (95% O2, 5% CO2) modified Krebs solution (g./liter: NaCl 6.6, KCl 0.35, MgSO4.7 H2 O 0.295, KH2 PO4 0.162, CaCl2 0.238, NaHCO3 2.1 and dextrose 2.09). The spontaneously beating right atrium was dissected free from other tissues and a silk thread (4-O) attached to each end. The atrium was suspended in a 20 ml. muscle chamber containing oxygenated modified Krebs solution maintained at 32° C. Atrial contractions were recorded isometrically by means of a Grass FT 0.03 force displacement transducer and recordings of contractile force and rate were made with a Beckman RP Dynograph.
A resting tension of 1 g. was applied to the atrium and it was allowed to equilibrate for 1 hour.
Concentration-response curve displacement factors were calculated as follows: [formula] […] [formula]

[4] = test system: gastric secretion; conditions: animals and man; cited from earlier work
[5] = biological target: T1, histamine H2-receptors; conditions: Black et al., isolated guinea pig right atria; cited from earlier work
[6] = cited from earlier work
[7] = test system: H2 receptors; conditions: cited from earlier work
[8] = test system: peptic ulcer disease; conditions: clinical evaluation, Gray et al.; cited from earlier work
[9] = test system: agranulocytosis; conditions: in vivo; cited from earlier work
[10] = iv, histamine-stimulated gastric fistula dog
[11] = compared with cimetidine and Compound XII
[12] = ip, two hour pylorus ligated rat
[13] = 1.50 μMole/kg iv (BL-5949: one dog at this dose)

Question: With `C#CCNC(=C[N+](=O)[O-])NCCSCc1[nH]cnc1C` [BL-5949, 1-Nitro-2-(2-propynylamino)-2-{2-[(4-methyl-1H-imidazol-5-yl)methylthio]ethylamino}ethylene] as the molecule, how does the “Percent Inhibition Acid Output” value ([1]; 0.0938 μMole/kg iv) read?
Answer: 34%

Question: What about the “Percent Inhibition Acid Output” value ([1]; 0.1875 μMole/kg iv) of the same molecule?
Answer: 46%

Question: And the “Percent Inhibition Acid Output” value ([1]; 0.375 μMole/kg iv)?
Answer: 62%

Question: And the “Percent Inhibition Acid Output” value ([1]; 0.75 μMole/kg iv)?
Answer: 68%

Question: What about the ED50 [1, 10] of the same molecule?
Answer: 0.24 µmol/kg

Question: And the “Potency as inhibitor of gastric secretion in dogs (in words)” value [1, 11]?
Answer: more potent than either cimetidine or Compound XII

Question: What about the “times more potent than Compound XII” value ([1]; relative to Compound XII, iv) of the same molecule?
Answer: 3.8 times

Question: And the “Potency Ratio” value ([1]; iv)?
Answer: 5.56

Question: What about the “Percent Inhibition Acid Output” value ([2]; 2.5 μMole/kg ip) of the same molecule?
Answer: 33%

Question: What about the “Percent Inhibition Acid Output” value ([2]; 5 μMole/kg ip) of the same molecule?
Answer: 51%

Question: What about the “Percent Inhibition Acid Output” value ([2]; 20 μMole/kg ip) of the same molecule?
Answer: 87%

Question: And the ED50 [2, 12]?
Answer: 4.62 µmol/kg

Question: What about the “Potency as inhibitor of gastric secretion in rats (in words)” value [2, 11] of the same molecule?
Answer: more potent than either cimetidine or Compound XII

Question: And the “times more potent than Compound XII” value ([2]; relative to Compound XII, ip)?
Answer: 3.7 times

Question: What about the “Potency Ratio” value ([2]; ip) of the same molecule?
Answer: 2.26

Question: And the “Potency as histamine H2-receptor antagonist in isolated guinea pig atria (in words)” value [3, 11]?
Answer: more potent than either cimetidine or Compound XII

Question: What about the “times as active as Compound XII” value ([3]; relative to Compound XII) of the same molecule?
Answer: about 2.7 times

Question: And the “Histamine ED50 after test compound” value [3]?
Answer: 14.05 µg/mL

Question: And the “Concentration-Response Curve Displacement Factor” value [3]?
Answer: 46.83

Question: For `CNC(=S)NCCCCc1cnc[nH]1` [Burimamide], which “Inhibition of gastric secretion / oral activity (in words)” value [4] is on record?
Answer: inhibits gastric secretion in animals and man

Question: What about the “Type of antagonism at histamine H2-receptors (in words)” value [5] of the same molecule?
Answer: competitive antagonist of these receptors

Question: What about the oral absorption ([6]; oral) of the same molecule?
Answer: poor

Question: Which results are given for `CNC(=NC#N)NCCSCc1[nH]cnc1C` [Cimetidine]?
Answer: H2 antagonist activity (in words) [7]: as effective an H2 antagonist as metiamide; Efficacy in the treatment of peptic ulcer disease (in words) [8]: effective therapeutic agent in the treatment of peptic ulcer disease; Percent Inhibition Acid Output ([1]; 0.75 μMole/kg iv): 37%; Percent Inhibition Acid Output [1, 13]: 53%; Percent Inhibition Acid Output ([1]; 3.0 μMole/kg iv): 73%; ED50 ([1]; iv): 1.33 µmol/kg; half-life ([6]; in vivo): relatively short; Percent Inhibition Acid Output ([2]; 2.5 μMole/kg ip): 9%; Percent Inhibition Acid Output ([2]; 5 μMole/kg ip): 53%; Percent Inhibition Acid Output ([2]; 10 μMole/kg ip): 41%; Percent Inhibition Acid Output ([2]; 20 μMole/kg ip): 57%; Percent Inhibition Acid Output ([2]; 40 μMole/kg ip): 72%; ED50 ([2]; Rattus norvegicus, ip): 10.4 µmol/kg; Histamine ED50 after test compound [3]: 4.80 µg/mL; Concentration-Response Curve Displacement Factor [3]: 25.26; Toxicity (agranulocytosis) [9]: without producing agranulocytosis

Question: With `CNC(=C[N+](=O)[O-])NCCSCc1[nH]cnc1C` [Compound XII] as the molecule, how does the “Percent Inhibition Acid Output” value ([1]; 0.375 μMole/kg iv) read?
Answer: 22%

Question: What about the “Percent Inhibition Acid Output” value ([1]; 0.75 μMole/kg iv) of the same molecule?
Answer: 42%

Question: And the “Percent Inhibition Acid Output” value [1, 13]?
Answer: 73%

Question: What about the ED50 [1, 10] of the same molecule?
Answer: 0.9 µmol/kg

Question: And the “Potency Ratio” value ([1]; iv)?
Answer: 1.47

Question: What about the “Percent Inhibition Acid Output” value ([2]; 10 μMole/kg ip) of the same molecule?
Answer: 25%

Question: And the “Percent Inhibition Acid Output” value ([2]; 20 μMole/kg ip)?
Answer: 64%

Question: What about the “Percent Inhibition Acid Output” value ([2]; 40 μMole/kg ip) of the same molecule?
Answer: 86%

Question: What about the ED50 [2, 12] of the same molecule?
Answer: 17.2 µmol/kg

Question: What about the “Potency Ratio” value ([2]; ip) of the same molecule?
Answer: 0.61

Question: What about the “Histamine ED50 after test compound” value [3] of the same molecule?
Answer: 4.30 µg/mL

Question: And the “Concentration-Response Curve Displacement Factor” value [3]?
Answer: 17.92

Question: With `NCCc1c[nH]cn1` [Histamine] as the molecule, how does the “Histamine ED50 (control, before test compound)” value ([3]; control of Compound XII series, N=2, contractile rate) read?
Answer: 0.24 µg/mL

Question: With `CNC(=S)NCCSCc1[nH]cnc1C` [Metiamide] as the molecule, how does the “H2 antagonist activity (in words)” value [7] read?
Answer: more potent than burimamide

Question: And the “Inhibition of gastric secretion / oral activity (in words)” value [4]?
Answer: orally active in man

Question: And the “Toxicity (agranulocytosis)” value [9]?
Answer: toxicity (agranulocytosis)
